Among the data in PubChem BioAssay (NCI) are GI50 and TGI values, retold here.

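Method: 48-hour compound exposure of cells in 96-well plates, five concentrations, linear interpolation of endpoints. Abbreviation: GI50, concentration required for 50% inhibition of growth. Definition used: TGI = concentration required for complete inhibition of growth.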

Some test systems named below: A498 renal; CCRF-CEM leukemia; HS 578T breast; HT29 colon; NCI/ADR-RES ovarian; SK-MEL-2 melanoma; SK-MEL-5 melanoma; UACC-62 melanoma; 786-0 renal; COLO 205 colon; KM12 colon; MDA-MB-435.
Common to all, as to assay: inhibition of tumour cell growth, NCI panel, 48 h

Consider `Clc1ccc2c(NCCNc3nc(-c4ccccc4)cc(-c4ccccc4)n3)ccnc2c1`, for which the GI50 in the test with A498 renal was 2.15 µM; in the test on CCRF-CEM leukemia it was 2.32 µM; in the test with HS 578T breast, 1.99 µM; in the test with HT29 colon, 1.66 µM; with NCI/ADR-RES ovarian it was 1.77 µM; with SK-MEL-2 melanoma, 1.84 µM. The GI50 is 1.79 µM in the test with SK-MEL-5 melanoma and 1.85 µM in the test on UACC-62 melanoma. Further, the TGI in the test on A498 renal worked out at 5.61 µM; in the test with CCRF-CEM leukemia, 5.83 µM; with HS 578T breast, 4.56 µM; in the test on HT29 colon, 3.31 µM; in the test on NCI/ADR-RES ovarian, 3.6 µM; in the test on SK-MEL-2 melanoma it was 3.62 µM. Also, the figures for the TGI in the test with SK-MEL-5 melanoma and with UACC-62 melanoma were 3.2 µM and 3.37 µM, respectively.
Turning to `Cc1ccc(S(=O)(=O)C2=c3ncccc3=C3C(=O)c4ccccc4C(=O)C32)cc1` (stereo not given), the TGI in the test with 786-0 renal is 50.3 µM; in the test with CCRF-CEM leukemia, more than 100 µM; in the test on COLO 205 colon, more than 100 µM; in the test with HS 578T breast, 81.8 µM; in the test on HT29 colon, more than 100 µM; with KM12 colon, more than 76.6 µM. The TGI with MDA-MB-435 is more than 100 µM; with NCI/ADR-RES ovarian, more than 100 µM; in the test with SK-MEL-2 melanoma it was more than 100 µM; in the test on SK-MEL-5 melanoma, more than 15 µM; with UACC-62 melanoma, 69.7 µM.
Turning to `N#Cc1c(N2CCOCC2)ncn(-c2ccccc2)c1=O`, the TGI in the test on 786-0 renal, with A498 renal, in the test on CCRF-CEM leukemia, in the test on COLO 205 colon, in the test with KM12 colon and in the test on MDA-MB-435 was more than 100 µM in each case. The TGI in the test with NCI/ADR-RES ovarian, in the test on SK-MEL-2 melanoma, in the test on SK-MEL-5 melanoma and in the test on UACC-62 melanoma was more than 100 µM throughout.
On to `C(/COc1cccnc1)=N\NC1=NCCN1`, for which the TGI in the test with 786-0 renal, in the test on A498 renal, with CCRF-CEM leukemia, with COLO 205 colon, with HT29 colon and with KM12 colon was more than 100 µM in each case. Further, the TGI in the test on SK-MEL-2 melanoma, with SK-MEL-5 melanoma and with UACC-62 melanoma was more than 100 µM each time.
For the molecule `CCC(C)(C)NC1=C(NC(C)=O)C(=O)c2ccccc2C1=O`, the TGI with 786-0 renal is more than 75 µM; with CCRF-CEM leukemia it was 41.3 µM; with COLO 205 colon it was more than 75 µM; with HT29 colon, more than 75 µM; in the test on KM12 colon, more than 75 µM; in the test with SK-MEL-2 melanoma, 58.2 µM. The TGI in the test with SK-MEL-5 melanoma was 26 µM; with UACC-62 melanoma it was more than 75 µM.
As to `CCNC1CC(C(C)(C)NCC)CC=C1C` (stereo not given), the TGI in the test with 786-0 renal, with CCRF-CEM leukemia, with COLO 205 colon, in the test with HT29 colon, in the test on KM12 colon and in the test with MDA-MB-435 was more than 100 µM throughout. Besides, the TGI in the test on NCI/ADR-RES ovarian, in the test with SK-MEL-5 melanoma and in the test with UACC-62 melanoma was more than 100 µM each time.
On to `Cc1[nH]n(-c2ccccc2)c(=S)c1C(=O)c1ccccc1`, for which the TGI in the test with A498 renal is 44.9 µM; in the test on CCRF-CEM leukemia, 57 µM; in the test with COLO 205 colon, more than 100 µM; in the test with KM12 colon, more than 100 µM; in the test on SK-MEL-2 melanoma, more than 100 µM; in the test with SK-MEL-5 melanoma, more than 100 µM. The same molecule came in with a TGI with UACC-62 melanoma of more than 100 µM.
Turning to `COC(=O)[C@]1(c2cc3ccccc3n2S(=O)(=O)c2ccccc2)CC2CCC1NC2` (stereo not given in full), the TGI stood at 27.3 µM with 786-0 renal; 56.8 µM in the test on CCRF-CEM leukemia; 29.7 µM with COLO 205 colon; 25.7 µM with HT29 colon; 28.3 µM in the test with KM12 colon; 27.4 µM in the test on MDA-MB-435. For the same molecule, the TGI in the test on NCI/ADR-RES ovarian turned out to be 44.6 µM; in the test on SK-MEL-2 melanoma it was 31.7 µM; in the test on SK-MEL-5 melanoma, 26.4 µM; in the test on UACC-62 melanoma, 29.5 µM.
For `c1ccc2cc3n[se]nc3cc2c1`, the TGI with CCRF-CEM leukemia, with COLO 205 colon, with HT29 colon, in the test on KM12 colon, with SK-MEL-2 melanoma and in the test with SK-MEL-5 melanoma was more than 100 µM in each case. In the test with UACC-62 melanoma, this molecule gave a TGI of more than 100 µM.
Take `Cc1sc(N=Nc2c(O)[nH]c3ccccc23)nc1-c1ccccc1`: the TGI was 36.6 µM with 786-0 renal; 32.3 µM with A498 renal; 46.2 µM with COLO 205 colon; 54.5 µM in the test with HT29 colon; 43.7 µM in the test with KM12 colon; 66.8 µM in the test on MDA-MB-435. Moreover, the TGI is 44.7 µM in the test on NCI/ADR-RES ovarian, 49.5 µM in the test with SK-MEL-2 melanoma, 33.9 µM in the test on SK-MEL-5 melanoma and 34.3 µM in the test on UACC-62 melanoma.
In the case of `CCCCCCCCCCCCCCCCCCNc1ccn(C2OC(CO)C(OP(=O)(O)OCC3CCC(n4ccc(N)nc4=O)O3)C2O)c(=O)n1` (stereo not given), the TGI in the test with 786-0 renal is more than 100 µM; with CCRF-CEM leukemia, 58.1 µM; with COLO 205 colon, more than 100 µM; with HS 578T breast, more than 100 µM; in the test on HT29 colon, more than 100 µM; with KM12 colon, more than 100 µM. The TGI in the test with MDA-MB-435, in the test on NCI/ADR-RES ovarian, in the test on SK-MEL-2 melanoma, in the test with SK-MEL-5 melanoma and with UACC-62 melanoma was more than 100 µM throughout.
As for `CC1C(c2ccccc2O)c2cc3c(cc2OC1N1CCCC1)OCO3` (stereo not given), the TGI in the test on 786-0 renal is 91 µM; in the test on A498 renal, 60.7 µM; with CCRF-CEM leukemia, more than 100 µM; with COLO 205 colon it was 55.5 µM; with HS 578T breast, 43.3 µM; in the test on HT29 colon, 30.8 µM. The TGI was more than 100 µM in the test on KM12 colon; 81.9 µM with MDA-MB-435; 80 µM in the test with SK-MEL-2 melanoma; more than 100 µM with SK-MEL-5 melanoma; more than 100 µM in the test on UACC-62 melanoma.
With `C[n+]1c2ccccc2c(NC(CCC(N)=O)C(=O)O)c2ccccc21` (stereo not given), the TGI in the test with 786-0 renal, in the test with A498 renal, in the test on COLO 205 colon, with HT29 colon, in the test with KM12 colon and with SK-MEL-2 melanoma was more than 100 µM in each case. For the same molecule, the TGI in the test with SK-MEL-5 melanoma and in the test with UACC-62 melanoma was more than 100 µM in each case.
With `COc1ccc(C2=C(OC(C)=O)c3cccn3-c3ccccc3S2)cc1`, the TGI with 786-0 renal was more than 10 µM; with CCRF-CEM leukemia, more than 10 µM; in the test on COLO 205 colon it was 8.53 µM; in the test with HT29 colon, more than 10 µM; in the test on KM12 colon, more than 10 µM; with MDA-MB-435, 0.877 µM. The TGI in the test with SK-MEL-5 melanoma and with UACC-62 melanoma was more than 10 µM throughout.
